Two molecules from patent publication US9702865B2, “System and method for high-content oncology assay” (RIGEL PHARMACEUTICALS, INC., priority 2002, dated 2017) can be followed below.

What is called viability is a read-out of living cells in per cent, often relative to untreated cells. Low values mean more harm to the cells, high ones less harm to the cells. As usually defined, the pEC50 is the EC50 on a negative log10 scale, so that one unit is a factor of ten. Lower therefore signals a large EC50.

Holding throughout (format): cell-based
For series [1], the system named is A549 cells. Briefly: in vitro. Conditions: FIG. 10. From the text: (§1) FIG. 9A illustrates one embodiment of processing steps associated with the operation of the cell death analysis module 62. The first processing step of FIG. 9A is to obtain luminescence intensity (LI) values corresponding to defined nuclei of cells captured by the image capture device (block 130), as described above. Based upon these LI values, the minimum nuclear luminescence intensity values (“MNLI”) are obtained (block 132). The MNLI value for a nucleus is the lowest LI value measured for that nucleus, for example, the lowest gray value of the pixels within a specific defined nucleus. At this point, the cell death analysis module 62 may compare the MNLI values of particular cells to a range of predefined MNLI values indicative of viable cells (block 134). A value falling outside this range identifies the cell as being non-viable or dead, whereas a value falling within this range identifies the cell as being viable or alive. Alternatively, the cell death analysis module 62 may be carried out with populations of cells, as illustrated in FIG. 9B. In this instance, MNLI values for a plurality of defined nuclei are obtained (block 142) based upon their LI values (block 140) and the percentage of cells having MNLI values falling outside a specified range of MNLI values is calculated (block 144). This percentage is then compared with a predefined percentage range indicative of a viable cell population (block 146). Cell populations having percentages falling within the predefined range are reported as viable populations, whereas percentages falling outside the predefined range are reported as non-viable populations.
(§2) In one embodiment, the range of MNLI values indicative of viable cells may be calculated from control cell MNLI values using standard statistical analyses. For example, the MNLI values that bound a specified percentage or confidence interval, for example, 80%, 90%, 95% or a higher percentage, of the control cell MNLI values may be used as boundaries to defined the range of MNLI values indicative of viable cells. As this range is only exemplary, it will be appreciated that higher or lower percentages may be utilized. As a specified example, the MNLI values that bound 95% of the MNLI values using a standard statistical analysis yields good results. […] Once applied, the percentage of test cells falling within (or without) the range can be calculated to assess whether the cell population is viable or non-viable. […]
(§3) The coordinates of these DMSO-treated cells form a tight band of MNLI values. Based on a statistical analysis, 95% of the MNLI values measured from this population fall within a range of 481 to 560 intensity units (i.e., within a range of […] from the statistical mean MNLI value). […]

The next series can be described thus: in vitro. The settings on record: human.
Text: as §1, §2, §3

Series [2] deals with A549 cells. In words: cell proliferation assay (nuclei count, cell proliferation analysis module). Conditions: Homo sapiens; taxol-treated A549 cells, nuclei count vs concentration, FIG. 5. From the text:
The cell proliferation analysis module 58 provides information about the ability of cells to divide and proliferate. In general, the cell proliferation analysis module provides such information by counting the number of objects (typically nuclei) identified by the object identification module 57. In one embodiment, the cell proliferation analysis module […] can be used to screen for and/or identify candidate compounds having anti-proliferative activity. According to this embodiment, the proliferation of cells treated with or exposed to a candidate compound of interest can be monitored with the cell proliferation analysis module 58 of the invention. […] In a specific embodiment, samples of equal volume are collected from a cell culture as a function of time and analyzed for proliferation with the cell proliferation analysis module 58 of the invention. […]
In another specific embodiment, adherent cells may be treated with different concentrations of test compound, permitted to incubate for a specified period time and then analyzed with the cell proliferation analysis module 58. Plotting the average number of cells in each sample well as a function of compound concentration provides a curve from which the anti-proliferative IC50 (or EC50) can be determined. […]

pEC50: −log10 of the molar value.

With `COc1cc([C@@H]2c3cc4c(cc3[C@@H](O[C@@H]3O[C@@H]5CO[C@@H](C)O[C@H]5[C@H](O)[C@H]3O)[C@H]3COC(=O)[C@H]23)OCO4)cc(OC)c1O` [etoposide], in the series with A549 cells [1], the “induction of cell death (MNLI analysis and visual inspection of images)” value was “do not”. The viability in the series “in vitro” is 99.5%.
As to `CC(=O)O[C@H]1C(=O)[C@@]2(C)[C@H]([C@H](OC(=O)c3ccccc3)[C@]3(O)C[C@H](OC(=O)[C@H](O)[C@@H](NC(=O)c4ccccc4)c4ccccc4)C(C)=C1C3(C)C)[C@]1(OC(C)=O)CO[C@@H]1C[C@@H]2O` [taxol], in the series with A549 cells [1], the “induction of cell death (MNLI analysis and visual inspection of images)” value is “induce cell death”. For the same molecule, the viability in the series “in vitro” is 83%. Besides, the negative logarithm of the EC50 (pEC50) in the series on A549 cells [2] was 8.66.
